Measured values from PubChem BioAssay (NCI).
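GI50 = concentration required for 50% inhibition of growth. TGI denotes the concentration required for complete inhibition of growth.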

Legend:
Assay in all cases: NCI tumour cell line growth inhibition, 384-well format
[1] = tested on: HOP-92 NSCLC
[2] = tested on: MOLT-4 leukemia
[3] = tested on: SR leukemia
[4] = tested on: HT29 colon
[5] = tested on: OVCAR-8 ovarian
[6] = tested on: BT-549 breast
[7] = tested on: HCC-2998 colon
[8] = tested on: T-47D breast
[9] = tested on: SN12C renal
[10] = tested on: OVCAR-5 ovarian
[11] = tested on: MDA-MB-468 breast
[12] = tested on: SK-OV-3 ovarian
[13] = tested on: KM12 colon
[14] = tested on: SF-295 CNS
[15] = tested on: SK-MEL-28 melanoma
[16] = tested on: OVCAR-4 ovarian
[17] = tested on: MCF7 breast
[18] = tested on: RXF 393 renal
[19] = tested on: UACC-62 melanoma
[20] = tested on: U251 glioblastoma
[21] = tested on: RPMI-8226 leukemia
[22] = tested on: NCI-H322M lung
[23] = tested on: 786-0 renal
[24] = tested on: HCT-15 colon
[25] = tested on: MDA-MB-435 melanoma
[26] = tested on: SF-539 CNS
[27] = tested on: HL-60(TB) leukemia
[28] = tested on: SK-MEL-5 melanoma
[29] = tested on: A498 renal
[30] = tested on: SW-620 colon
[31] = tested on: UACC-257 melanoma
[32] = tested on: CCRF-CEM leukemia
[33] = tested on: DU-145 prostate
[34] = tested on: SNB-19 CNS
[35] = tested on: NCI-H522 lung
[36] = tested on: TK-10 renal
[37] = tested on: M14 melanoma
[38] = tested on: PC-3 prostate
[39] = tested on: IGROV1 ovarian
[40] = tested on: NCI/ADR-RES ovarian
[41] = tested on: MDA-MB-231 breast
[42] = tested on: EKVX NSCLC
[43] = tested on: ACHN renal
[44] = tested on: OVCAR-3 ovarian
[45] = tested on: MALME-3M melanoma
[46] = tested on: K-562 leukemia
[47] = tested on: A549 NSCLC
[48] = tested on: CAKI-1 renal
[49] = tested on: COLO 205 colon
[50] = tested on: NCI-H226 lung
[51] = tested on: NCI-H460 NSCLC
[52] = tested on: SF-268 CNS
[53] = tested on: LOX IMVI melanoma
[54] = tested on: SNB-75 CNS
[55] = tested on: HOP-62 NSCLC
[56] = tested on: HS 578T breast
[57] = tested on: UO-31 renal
[58] = tested on: NCI-H23 lung

## CN(C)CCOc1ccc(-c2nc(-c3ccc4c(c3)CC/C4=N\O)c(-c3ccncc3)[nH]2)cc1
[1]
  GI50: 1740 nM
  TGI: 3120 nM
[2]
  GI50: 2150 nM
  TGI: 3600 nM
[3]
  GI50: 1710 nM
  TGI: 3090 nM
[4]
  GI50: 555 nM
  TGI: 2060 nM
[5]
  GI50: 1890 nM
  TGI: 3320 nM
[6]
  GI50: 1960 nM
  TGI: 3390 nM
[7]
  GI50: 1690 nM
  TGI: 3080 nM
[8]
  GI50: 1880 nM
  TGI: 3300 nM
[9]
  GI50: 14200 nM
  TGI: 27300 nM
[10]
  GI50: 1860 nM
  TGI: 3320 nM
[11]
  GI50: 2140 nM
  TGI: 3580 nM
[12]
  GI50: 1790 nM
  TGI: 3190 nM
[13]
  GI50: 1900 nM
  TGI: 3330 nM
[14]
  GI50: 7010 nM
  TGI: 19100 nM
[15]
  GI50: 27.7 nM
  TGI: 198 nM
[16]
  GI50: 2680 nM
  TGI: 4170 nM
[17]
  GI50: 1460 nM
  TGI: 2810 nM
[18]
  GI50: 1680 nM
  TGI: 3050 nM
[19]
  GI50: 22.6 nM
  TGI: 285 nM
[20]
  GI50: 2010 nM
  TGI: 3480 nM
[21]
  GI50: 1900 nM
  TGI: 3360 nM
[22]
  GI50: 1850 nM
  TGI: 3510 nM
[23]
  GI50: 1790 nM
  TGI: 3200 nM
[24]
  GI50: 2450 nM
  TGI: 6460 nM
[25]
  GI50: 58.9 nM
  TGI: 1600 nM
[26]
  GI50: 2140 nM
  TGI: 3600 nM
[27]
  GI50: 941 nM
  TGI: 2090 nM
[28]
  GI50: 130 nM
  TGI: 1570 nM
[29]
  GI50: 1880 nM
  TGI: 3310 nM
[30]
  GI50: 2360 nM
  TGI: 3850 nM
[31]
  GI50: 25.7 nM
  TGI: 164 nM
[32]
  GI50: 1880 nM
  TGI: 3290 nM
[33]
  GI50: 3090 nM
  TGI: 9610 nM
[34]
  GI50: 2070 nM
  TGI: 4060 nM
[35]
  GI50: 1590 nM
  TGI: 2950 nM
[36]
  GI50: 3980 nM
  TGI: 13000 nM
[37]
  GI50: 33.4 nM
  TGI: 839 nM
[38]
  GI50: 1780 nM
  TGI: 3270 nM
[39]
  GI50: 13100 nM
  TGI: 25900 nM
[40]
  GI50: 21900 nM
  TGI: 58300 nM
[41]
  GI50: 1150 nM
  TGI: 2370 nM
[42]
  GI50: 1890 nM
  TGI: 3430 nM
[43]
  GI50: 2140 nM
  TGI: 4320 nM
[44]
  GI50: 2070 nM
  TGI: 3520 nM
[45]
  GI50: 10.6 nM
  TGI: 34.2 nM
[46]
  GI50: 1970 nM
  TGI: 3430 nM
[47]
  GI50: 1990 nM
  TGI: 4020 nM
[48]
  GI50: 1980 nM
  TGI: 3430 nM
[49]
  GI50: 20.3 nM
  TGI: 1130 nM
[50]
  GI50: 2320 nM
  TGI: 3780 nM
[51]
  GI50: 1890 nM
  TGI: 3380 nM
[52]
  GI50: 1810 nM
  TGI: 3220 nM
[53]
  GI50: 963 nM
  TGI: 2160 nM
[54]
  GI50: 2070 nM
  TGI: 3510 nM
[55]
  GI50: 1850 nM
  TGI: 3260 nM
[56]
  GI50: 1880 nM
  TGI: 3290 nM
[57]
  GI50: 15800 nM
  TGI: 29500 nM
[58]
  GI50: 1380 nM
  TGI: 2860 nM
